How the values were obtained:
[1] = Chemical stability at 40° C./75% RH, hydroxytyrosol content by HPLC; type: physicochemical; details: double-layer polyethylene bags; for content of hydroxytyrosol, Day 0: 0 d, initial content set as 100%; for content of hydroxytyrosol, Day 14: 14 d; for content of hydroxytyrosol, Day 14 / content of hydroxytyrosol, Day 30: % of initial content; for content of hydroxytyrosol, Day 30: 30 d
Method: An appropriate amount of powder sample was put in an accelerated stability chamber at 40° C./75% RH with the packaging condition of double-layer polyethylene bags, and the sample was taken at 0 d, 14 d, and 30 d. The content of hydroxytyrosol was determined by high performance liquid chromatography (the content was calculated by external standard method).

[2] = Hygroscopicity by dynamic moisture sorption (DVS); type: physicochemical; details: 80% relative humidity, 25° C.
Method: About 5 mg of powder sample was weighed and put in a dynamic moisture sorption instrument (DVS). The relative humidity range was set at from 0 to 95%, and the temperature was set at 25° C. The weight change of the samples under different environmental humidity conditions were recorded and used to compare the hygroscopicity of the material.

content of hydroxytyrosol, Day 30 [1] [%]	content of hydroxytyrosol, Day 30 ([1]; listed as hydroxytyrosol itself) [%]	Compound	content of hydroxytyrosol, Day 0 [1] [%]	content of hydroxytyrosol, Day 14 [1] [%]	hygroscopicity (weight change) [2] [%]	hygroscopicity (in words) [2]
92.3	92.3	OCCc1ccc(O)c(O)c1 [Hydroxytyrosol itself, Hydroxytyrosol]	100.0	98.8	16.9	–
–	–	co-crystal of hydroxytyrosol and nicotinamide [Example 1]	100.0	99.7	0.39	basically non-hygroscopic

Source: patent publication US20240166604A1, “HYDROXYTYROSOL NICOTINAMIDE EUTECTIC CRYSTAL, AND PREPARATION METHOD THEREFOR AND COMPOSITION THEREOF” (COCRYSTAL TECHNOLOGY (JIAXING) CO., LTD., priority 2021, published 2024)
